Test results as given in ChEMBL document CHEMBL1126603, “Synthesis and pharmacokinetics of a dihydropyridine chemical delivery system for the antiimmunodeficiency virus agent dideoxycytidine” (J Med Chem, 1993).

Tested on: MT4
Assay: Growth inhibition of HIV-1 in human lymphocyte MT-4 cells
Assay type: functional, cell-based

CN1C=CCC(C(=O)OCC2CCC(n3ccc(N)nc3=O)O2)=C1 (centres undefined)
IC50: 1.2 µM

CN1C=CCC(C(=O)Nc2ccn(C3CCC(CO)O3)c(=O)n2)=C1 (centres undefined)
IC50: 1.2 µM

Nc1ccn([C@H]2CC[C@@H](CO)O2)c(=O)n1 (stereo in doubt; form 1) [ZALCITABINE]
IC50: 1 µM

CN1C=CCC(C(=O)Nc2ccn(C3CCC(COC(=O)C4=CN(C)C=CC4)O3)c(=O)n2)=C1 (centres undefined)
IC50: 1.9 µM
